Assay results: patent US8569372B2, “Method for preventing or treating a disease, disorder or condition induced by retina ischemia” (priority 2011, dated 2013)

Legend:
[1] = system: MMP-9 mRNA; experiment: Real-time PCR of retinal mRNA after ischaemia/reperfusion: MMP-9; type: in vivo, Wistar rats; conditions: 100 μM SAC pre-treatment, 24 hours after I/R; control 0.46±0.15, vehicle 1.97±0.38; n=6
Procedure: The rats (200-250 g) were anaesthetized and placed in a stereotaxic frame. The anterior chamber of one eye was cannulated with a 30-gauge needle connected to a 0.9% saline reservoir; this caused a high IOP (HIOP) of 120 mmHg for 60 minutes. Eye fundus whitening and a low ERG response confirmed induction of an ischaemic insult. A sham procedure was carried out on the controls. Drug administration involved the pre-administration (15-minute before 60-minute HIOP induced retinal ischaemia) of SAC (25, 50, 100 μM) or vehicle (saline; control). The ischemic eye of each test rat was treated with or without a single intravitreous injection of 5 μl of the test compound. […] The levels of Thy-1, HIF-1 Alpha, VEGF and MMP-9 mRNAs present in the retinas were determined using a real-time PCR technique. […] Relative quantification (a comparative method) was performed using the house keeping gene Beta-actin as the internal standard. This process allows the normalized quantification of the mRNA target (Ct) and takes into account the differences in the amount of total RNA added to each reaction (ΔCt). The relative HIF-1 Alpha/VEGF/MMP-9 expression changes were calculated as fold changes relative to the control with respect to the calibrator (ΔΔCt), which was represented by the control retina. […] The data obtained for each treatment were pooled, and a total percentage change relative to the control was calculated. […]

[2] = system: HIF-1 Alpha; experiment: ELISA of HIF-1 Alpha protein in RGC-5 cells under H2O2 oxidative stress; type: cell-based; conditions: 100 μM SAC 15-minute pre-treatment, 500 μM H2O2 24 hours; control 1254.39±116.03, H2O2 1874.72±133.46; n=6
Procedure: In the enzyme-linked immunosorbent assay (ELISA), the cells (2.5×10^4 in each well) were plated into 96-well plates. Each well contains 200 μl of DMEM (control) without or with H2O2. Next, the cells were incubated at 37° C. for 1 day and then shifted to serum free medium for the following day. In order to stimulate oxidative stress, 500 μM H2O2 (Sigma-Aldrich 18304/k0250, St Louis, Mo., USA) was then added for 24 hours as described elsewhere. Depending on the experimental protocol, SAC or vehicle was added to some samples 15 minutes before adding H2O2. […] Total protein was determined using a bicinchoninic acid protein kit (Thermo Fisher Scientific Inc., IL, U.S.A.). The HIF-1 Alpha/VEGF/MMP-9 levels in the cells/medium were measured using various ELISA kits, namely HIF-1 Alpha (Uscn Life Science Inc., Wuhan 430056, China); VEGF-A (BMS277/2, Bender […], Austria) and MMP-9 Duoset (D911, R&D, Minneapolis, Minn., U.S.A.). […] The HIF-1 Alpha/VEGF/MMP-9 concentration of each sample was determined by constructing a standard curve using 100 μl of sample diluent containing various amounts of HIF-1 Alpha/VEGF/MMP-9 pure protein (0-1000 pg/ml). […] The absorbance (optical intensity, O.D.) was detected at 450 nm by spectrophotometer (ELx800, Biotek, Winooski, Vt., U.S.A.). […]

## C=CCSC[C@H](N)C(=O)O [SAC, S-allyl L-cysteine]
[1]
  MMP-9 mRNA ratio in the retina: 0.41±0.15
[2]
  HIF-1 Alpha protein level (ELISA): 1256.47 ± 157.62 pg/mL
